Assays:
[1] = test system: rats fed a calcium-deficient diet; assay: Effects on bone absorption of calcium (30-day oral administration); assay type: in vivo, rat; settings: 30 days, 1 mg (Ca)/day, GA coadministered with Ca, compared with the Ca-treated group, FIG. 6
Source text: (§1) […]. Male Wistar rats weighing 200-250 g, and about 120 g especially in the experiment of studying calcium born absorption (Test Example 3), were used as an experimental animal.
Next, it was studied whether the accelerating effect of GA on calcium absorption reaches bone absorption, and prevents the decease of calcium content in the bone, using rats fed a calcium-deficient diet.
Calcium (Ca-treated group), or calcium and GA ([Ca+GA]-treated group) were orally administered to rats for 30 days with an amount of 1 mg (ca)/day, and changes of hardness and mineral (Ca, Mg, P, Zn) content of the femur, or ALP in blood were observed. Rats were fed a calcium-deficient diet in order to eliminate an effect of calcium contained in the normal diet.

[2] = test system: rats fed a calcium-deficient diet; assay: Effects on urinary excretion of calcium (metabolic cage); assay type: in vivo, rat; settings: total for three days, 40 mL of water containing the substance, FIG. 2
Procedure: as §1
Usually, calcium concentrations in blood are constantly maintained by biogenic homeostasis and it is difficult to utilize it as an index of calcium absorption. Accordingly, the urinary excretion of calcium was assayed in place of it.
Rats were kept in a metabolic cage and 40 mL of water containing calcium (Ca), Gum Arabic (GA), or Ca and GA (Ca+GA) was given for three days. […]. After recovering urine, urinary concentration of calcium and urine volume were measured.

Q: Which results are given for C[C@H](O)C(=O)[O-].C[C@H](O)C(=O)[O-].[Ca+2] [Ca, calcium L-lactate]?
A: ALP in blood [1]: elevation of ALP in blood was observed; urinary excretion of calcium [2]: not increased

Source: patent US20090098222A1, “Accelerating Agent of Calcium Absorption” (priority 2006, published 2009)
